Measurements from patent US10392368B2, “Pyrazolo and triazolo bicyclic compounds as JAK kinase inhibitors” (THERAVANCE BIOPHARMA R&D IP, LLC, priority 2017, dated 2019).
Read-outs that look alike come from different tables or passages of the source.

Assays:
[1] = test system: IL-2 stimulated pSTAT5 in Tall-1 T cells; assay: Cellular JAK3 potency assay: inhibition of IL-2 stimulated pSTAT5 in Tall-1 T cells; assay type: cell-based, human; conditions: for IC50: Homo sapiens, read-out: Tall-1 (pIC50) (converted)
Method in brief: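 Tall-1 human T cells (45,000/well) in phenol red-free DMEM with 10% FBS were preincubated with compound 1 h at 37 °C, then stimulated with IL-2 (final 300 ng/ml) for 30 min. Lysate pSTAT5 read by AlphaLisa; IC50 from inhibition curves, reported as pIC50 (mean±SD).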

JAK1 = target: T1, JAK1 (Homo sapiens, UniProt P23458); assay: Biochemical JAK1 kinase assay (LanthaScreen); conditions: for Ki: read-out: JAK 1 (pKi) (converted)
T1 construct: GST; purchased Life Technologies
T1 sequence (P23458 whole entry): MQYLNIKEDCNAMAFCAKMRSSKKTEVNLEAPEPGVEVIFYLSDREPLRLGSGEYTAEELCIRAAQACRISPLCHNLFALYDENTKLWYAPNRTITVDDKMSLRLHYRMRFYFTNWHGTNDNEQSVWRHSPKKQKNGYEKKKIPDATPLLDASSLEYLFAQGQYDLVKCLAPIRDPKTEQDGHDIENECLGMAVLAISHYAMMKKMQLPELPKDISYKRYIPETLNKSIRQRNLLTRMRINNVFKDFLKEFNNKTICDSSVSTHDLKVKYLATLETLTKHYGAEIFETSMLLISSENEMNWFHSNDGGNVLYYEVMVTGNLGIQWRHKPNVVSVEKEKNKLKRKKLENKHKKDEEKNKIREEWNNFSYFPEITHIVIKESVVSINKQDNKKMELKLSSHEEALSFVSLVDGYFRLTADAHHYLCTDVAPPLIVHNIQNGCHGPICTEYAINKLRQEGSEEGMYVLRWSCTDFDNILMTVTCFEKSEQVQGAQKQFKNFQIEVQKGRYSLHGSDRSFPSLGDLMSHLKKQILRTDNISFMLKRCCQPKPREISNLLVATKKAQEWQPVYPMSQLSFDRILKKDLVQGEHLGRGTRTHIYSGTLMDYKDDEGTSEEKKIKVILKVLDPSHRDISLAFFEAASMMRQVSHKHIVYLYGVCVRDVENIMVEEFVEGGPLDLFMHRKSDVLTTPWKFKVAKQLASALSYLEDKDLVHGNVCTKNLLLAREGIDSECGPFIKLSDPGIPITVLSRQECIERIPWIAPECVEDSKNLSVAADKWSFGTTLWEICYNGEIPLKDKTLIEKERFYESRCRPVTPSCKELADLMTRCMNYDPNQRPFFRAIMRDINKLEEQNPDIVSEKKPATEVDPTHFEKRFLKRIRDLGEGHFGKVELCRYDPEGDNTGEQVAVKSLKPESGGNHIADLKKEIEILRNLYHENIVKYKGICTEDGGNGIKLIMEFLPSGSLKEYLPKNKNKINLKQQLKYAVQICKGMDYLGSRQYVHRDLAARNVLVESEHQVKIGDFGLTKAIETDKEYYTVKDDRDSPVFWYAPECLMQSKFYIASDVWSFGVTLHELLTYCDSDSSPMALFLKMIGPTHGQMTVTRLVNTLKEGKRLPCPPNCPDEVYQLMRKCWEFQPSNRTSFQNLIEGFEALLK
Method in brief: (§1)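 Values are pKi, calculated by Cheng-Prusoff from IC50 obtained by robust 4-parameter fitting of percent inhibition. The kinase reaction used GFP-STAT1 peptide in HEPES pH 7.5 buffer with MgCl2, EGTA and Brij-35, ATP-initiated after compound pre-incubation, 1 h at ambient temperature.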

JAK2 = target: T2, JAK2 (Homo sapiens, UniProt O60674); assay: Biochemical JAK2 kinase assay (LanthaScreen); conditions: for Ki: read-out: JAK 2 (pKi) (converted)
T2 construct: GST; purchased Life Technologies
T2 sequence (O60674 whole entry): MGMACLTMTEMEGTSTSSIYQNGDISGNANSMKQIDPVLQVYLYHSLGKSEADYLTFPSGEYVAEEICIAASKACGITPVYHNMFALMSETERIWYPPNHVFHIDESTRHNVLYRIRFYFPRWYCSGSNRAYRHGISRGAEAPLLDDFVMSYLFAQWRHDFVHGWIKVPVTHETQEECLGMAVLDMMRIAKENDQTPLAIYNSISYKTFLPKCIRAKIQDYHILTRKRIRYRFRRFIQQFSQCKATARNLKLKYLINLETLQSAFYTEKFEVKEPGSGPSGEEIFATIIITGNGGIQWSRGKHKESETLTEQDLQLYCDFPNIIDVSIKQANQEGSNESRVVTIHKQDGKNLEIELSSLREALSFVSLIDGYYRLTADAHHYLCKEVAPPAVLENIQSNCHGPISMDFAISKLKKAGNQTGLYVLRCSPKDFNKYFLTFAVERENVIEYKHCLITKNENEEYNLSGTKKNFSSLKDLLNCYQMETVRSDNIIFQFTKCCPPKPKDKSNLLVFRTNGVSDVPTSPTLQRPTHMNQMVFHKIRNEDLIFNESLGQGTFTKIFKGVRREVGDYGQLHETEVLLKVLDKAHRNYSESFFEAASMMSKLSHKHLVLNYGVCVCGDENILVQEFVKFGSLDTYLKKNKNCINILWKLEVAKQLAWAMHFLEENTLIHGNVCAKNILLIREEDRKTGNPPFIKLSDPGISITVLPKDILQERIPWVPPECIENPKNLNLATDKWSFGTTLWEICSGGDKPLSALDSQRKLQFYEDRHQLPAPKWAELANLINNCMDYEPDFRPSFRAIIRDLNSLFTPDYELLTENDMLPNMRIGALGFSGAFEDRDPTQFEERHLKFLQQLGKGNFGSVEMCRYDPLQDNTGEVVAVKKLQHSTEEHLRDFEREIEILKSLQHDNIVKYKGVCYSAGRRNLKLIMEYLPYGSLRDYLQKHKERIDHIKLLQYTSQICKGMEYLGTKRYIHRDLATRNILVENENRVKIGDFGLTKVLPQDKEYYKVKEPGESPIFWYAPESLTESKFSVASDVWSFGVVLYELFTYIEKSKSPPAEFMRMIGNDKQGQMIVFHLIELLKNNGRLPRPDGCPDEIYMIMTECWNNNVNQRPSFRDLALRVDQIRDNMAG
Method in brief: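 GST-tagged recombinant JAK2 pre-incubated 1 h at ambient temperature with compound and GFP-STAT1 peptide in HEPES pH 7.5/MgCl2 buffer, then ATP added for a 1 h reaction with 1% DMSO. TR-FRET read after EDTA and Tb-anti-pSTAT1 (pTyr701) addition; IC50 from 4-parameter fit, converted to pKi by Cheng-Prusoff.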

JAK3 = target: T3, JAK3 (Homo sapiens, UniProt P52333); assay: Biochemical JAK3 kinase assay (LanthaScreen); parameters: GST; purchased Life Technologies; conditions: for Ki: read-out: JAK 3 (pKi) (converted)
T3 sequence (P52333 1-1124): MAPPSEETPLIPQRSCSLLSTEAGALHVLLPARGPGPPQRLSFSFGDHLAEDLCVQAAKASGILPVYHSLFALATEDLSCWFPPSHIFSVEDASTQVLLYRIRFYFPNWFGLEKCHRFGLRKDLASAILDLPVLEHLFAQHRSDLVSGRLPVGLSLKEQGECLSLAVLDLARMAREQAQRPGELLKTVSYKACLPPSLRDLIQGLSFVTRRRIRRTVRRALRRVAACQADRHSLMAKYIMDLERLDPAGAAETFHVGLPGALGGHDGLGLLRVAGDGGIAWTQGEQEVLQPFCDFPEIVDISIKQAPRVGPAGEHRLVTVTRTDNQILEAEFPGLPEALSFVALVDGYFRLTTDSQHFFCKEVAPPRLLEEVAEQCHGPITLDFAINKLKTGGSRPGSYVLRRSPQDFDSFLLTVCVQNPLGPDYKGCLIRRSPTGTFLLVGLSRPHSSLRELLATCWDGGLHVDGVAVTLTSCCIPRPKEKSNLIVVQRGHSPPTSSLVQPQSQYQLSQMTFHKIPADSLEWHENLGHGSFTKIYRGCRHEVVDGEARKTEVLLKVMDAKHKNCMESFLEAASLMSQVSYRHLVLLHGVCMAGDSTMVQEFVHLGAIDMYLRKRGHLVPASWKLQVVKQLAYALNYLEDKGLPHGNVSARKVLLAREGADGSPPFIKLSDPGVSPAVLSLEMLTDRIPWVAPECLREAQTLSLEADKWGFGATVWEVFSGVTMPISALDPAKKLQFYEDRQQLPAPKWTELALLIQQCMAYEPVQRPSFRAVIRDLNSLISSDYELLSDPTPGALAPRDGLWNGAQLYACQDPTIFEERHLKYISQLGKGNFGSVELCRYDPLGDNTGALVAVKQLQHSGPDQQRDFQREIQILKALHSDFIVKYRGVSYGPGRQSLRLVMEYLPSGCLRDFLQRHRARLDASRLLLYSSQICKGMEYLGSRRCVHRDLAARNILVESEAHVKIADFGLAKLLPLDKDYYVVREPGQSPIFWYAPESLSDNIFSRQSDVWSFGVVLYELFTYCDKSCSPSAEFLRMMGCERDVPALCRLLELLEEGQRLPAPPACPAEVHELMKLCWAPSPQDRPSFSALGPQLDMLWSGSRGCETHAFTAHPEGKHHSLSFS
Method in brief: as §1

Tyk2 = target: T4, Tyk2 (Homo sapiens, UniProt P29597); assay: Biochemical Tyk2 kinase assay (LanthaScreen); conditions: for Ki: read-out: Tyk 2 (pKi) (converted)
T4 construct: GST; purchased Life Technologies
T4 sequence (P29597 whole entry): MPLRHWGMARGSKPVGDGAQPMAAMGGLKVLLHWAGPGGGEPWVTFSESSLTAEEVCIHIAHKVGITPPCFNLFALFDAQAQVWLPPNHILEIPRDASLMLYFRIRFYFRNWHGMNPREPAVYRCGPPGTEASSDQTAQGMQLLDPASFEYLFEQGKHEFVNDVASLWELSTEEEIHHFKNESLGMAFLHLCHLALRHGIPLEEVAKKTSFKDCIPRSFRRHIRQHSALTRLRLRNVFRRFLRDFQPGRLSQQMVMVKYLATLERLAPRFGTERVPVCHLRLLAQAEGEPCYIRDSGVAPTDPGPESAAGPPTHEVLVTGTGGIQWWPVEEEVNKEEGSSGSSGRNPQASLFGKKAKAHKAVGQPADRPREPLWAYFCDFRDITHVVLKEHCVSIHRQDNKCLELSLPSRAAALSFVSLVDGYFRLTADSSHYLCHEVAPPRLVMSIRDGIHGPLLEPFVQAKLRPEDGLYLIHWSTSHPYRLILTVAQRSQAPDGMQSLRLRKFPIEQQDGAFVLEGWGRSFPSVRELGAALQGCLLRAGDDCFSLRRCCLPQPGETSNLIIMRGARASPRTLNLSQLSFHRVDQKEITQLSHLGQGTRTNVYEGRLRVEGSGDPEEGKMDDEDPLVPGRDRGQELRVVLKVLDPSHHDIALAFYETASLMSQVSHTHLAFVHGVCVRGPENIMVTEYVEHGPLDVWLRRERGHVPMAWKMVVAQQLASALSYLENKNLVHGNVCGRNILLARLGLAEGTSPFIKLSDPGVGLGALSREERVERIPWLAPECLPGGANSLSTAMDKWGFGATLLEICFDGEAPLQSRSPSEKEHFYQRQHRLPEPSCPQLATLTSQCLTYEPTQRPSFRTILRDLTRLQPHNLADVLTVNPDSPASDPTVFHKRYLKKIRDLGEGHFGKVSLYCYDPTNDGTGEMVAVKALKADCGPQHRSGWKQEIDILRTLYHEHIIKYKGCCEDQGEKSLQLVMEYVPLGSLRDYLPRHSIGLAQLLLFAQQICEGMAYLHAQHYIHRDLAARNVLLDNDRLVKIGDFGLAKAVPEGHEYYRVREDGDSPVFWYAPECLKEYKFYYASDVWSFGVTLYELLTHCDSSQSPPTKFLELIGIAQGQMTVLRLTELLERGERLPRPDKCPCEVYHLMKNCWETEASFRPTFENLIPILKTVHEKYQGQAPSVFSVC
Method in brief: as §1

[2] = TALL-1, IL-2 stimulated pSTAT5, Tall-1 T cells
[3] = selectivity JAK3 over JAK1, difference of pKi
[4] = IL-2 stimulated pSTAT5 in Tall-1 T cells
[5] = selectivity: difference of pKi JAK3 and pKi JAK1
[6] = IL-2 stimulated pSTAT5, Tall-1 T cells

SMILES | IC50 [1, 2] | Ki (JAK1) | Ki (JAK2) | Ki (JAK3) | JAK3 (pKi)-JAK1 (pKi) (JAK3; [3]) | Ki (Tyk2) | Tall-1 (pIC50) [1, 4] | JAK 1 (pKi) (JAK1) | JAK 2 (pKi) (JAK2) | JAK 3 (pKi) (JAK3) | JAK3 (pKi)-JAK1 (pKi) (JAK3; [5]) | Tyk 2 (pKi) (Tyk2) | IC50 ([1]; TALL-1, IL-2 stimulated pSTAT5 in Tall-1 T cells) | Tall-1 (pIC50) [1, 6]
C=CC(=O)N1CC[C@@H](Oc2cc(-c3ccc(O)cc3)cc3[nH]ncc23)C[C@H]1C [Compound 12-29] | < 31.6 nM | > 100 nM | 10 to 100 nM | 0.1 to 1 nM | A (a value of 3 or above) | > 100 nM | – | – | – | – | – | – | – | –
C=CC(=O)N1CC(CC)(COc2nc(-c3ccc(O)cc3)cc3[nH]ncc23)C1 [Compound 3-62] | – | – | – | – | – | – | A (a pIC50 value≥7.5 (IC50≤32 nM)) | E (a pKi value of 7 or below (Ki of 100 nM or above)) | D (a pKi value between 7 and 8 (Ki between 100 nM and 10 nM)) | B (a pKi value between 9 and 10 (Ki between 1 nM and 0.1 nM)) | A (a value of 3 or above) | E (a pKi value of 7 or below (Ki of 100 nM or above)) | – | –
C=CC(=O)N1CC(C#N)(COc2cc(-c3ccc(O)cc3)cc3[nH]ncc23)C1 [Compound 3-20] | – | – | – | – | – | – | B (a pIC50 value between 6.7 (included) and 7.5 (IC50 between 200 nM and 32 nM)) | E (a pKi value of 7 or below (Ki of 100 nM or above)) | D (a pKi value between 7 and 8 (Ki between 100 nM and 10 nM)) | B (a pKi value between 9 and 10 (Ki between 1 nM and 0.1 nM)) | B (a value of 2.3 to 3) | E (a pKi value of 7 or below (Ki of 100 nM or above)) | – | –
C=CC(=O)N1CC[C@H](Oc2cc(-c3ccc(O)cc3)cc3[nH]nc(OC)c23)C1 [Compound 1-44] | – | > 100 nM | > 100 nM | < 0.1 nM | – | > 100 nM | – | – | – | – | A (a value of 3 or above) | – | < 31.6 nM | –
C=CC(=O)N1CCC(Oc2cc(-c3ccc(O)cc3)nc3[nH]ncc23)CC1C (stereo not drawn) [Compound 13-13] | – | – | – | – | A (a value of 3 or above) | – | – | E (a pKi value of 7 or below (Ki of 100 nM or above)) | E (a pKi value of 7 or below (Ki of 100 nM or above)) | B (a pKi value between 9 and 10 (Ki between 1 nM and 0.1 nM)) | – | E (a pKi value of 7 or below (Ki of 100 nM or above)) | – | C (a pIC50 value between 6 and 6.7 (IC50 between 1 μM and 200 nM))
C=CC(=O)N1CCC[C@@H](C(=O)Nc2cc(-c3ccc(O)cc3)cc3[nH]ncc23)[C@H]1C [Compound 12-57] | 31.6 to 200 nM | > 100 nM | 10 to 100 nM | 0.1 to 1 nM | A (a value of 3 or above) | > 100 nM | – | – | – | – | – | – | – | –
C=CC(=O)N1CC[C@H](COc2nc(-c3ccc(O)cc3)cc3[nH]ncc23)C1 [Compound 2-8] | – | – | – | – | – | – | B (a pIC50 value between 6.7 (included) and 7.5 (IC50 between 200 nM and 32 nM)) | E (a pKi value of 7 or below (Ki of 100 nM or above)) | D (a pKi value between 7 and 8 (Ki between 100 nM and 10 nM)) | B (a pKi value between 9 and 10 (Ki between 1 nM and 0.1 nM)) | A (a value of 3 or above) | E (a pKi value of 7 or below (Ki of 100 nM or above)) | – | –
C=CC(=O)N1CC(OCc2nc(-c3ccc(O)cc3)cc3[nH]ncc23)C1 [Compound 16-5] | – | – | – | – | A (a value of 3 or above) | – | – | E (a pKi value of 7 or below (Ki of 100 nM or above)) | E (a pKi value of 7 or below (Ki of 100 nM or above)) | A (a pKi value≥10 (Ki≤0.1 nM)) | – | E (a pKi value of 7 or below (Ki of 100 nM or above)) | – | A (a pIC50 value≥7.5 (IC50≤32 nM))
